The supplement of paper PMC10307832

What was measured:
Assay in all cases: relative viability (nuclei count vs DMSO), 5 days (fraction); higher = more cells survive
[1] = system: NCI-H1792
Method in brief: (§1)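 After 5 days of treatment, lung cancer cells in 1536-well plates were fixed and stained in a single step (final 0.05% Triton X-100, 1% formaldehyde, 1 ug/ml Hoechst) and their nuclei counted on 4× images. Treatment had been applied by pin tool the day after seeding as one drug alone or as a fixed anchor-drug dose with five library-drug doses (not always all listed) in √10 steps. Relative viability is the nuclei count of treated wells divided by that of vehicle wells, and values are medians of duplicate plates.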

[2] = system: NCI-H2347
Method in brief: as §1

[3] = system: HCC-15
Method in brief: as §1

[4] = system: NCI-H358
Method in brief: as §1

[5] = system: NCI-H1734
Method in brief: as §1

[6] = system: NCI-H647
Method in brief: as §1

[7] = system: SW 1573
Method in brief: as §1

[8] = system: NCI-H2228
Method in brief: as §1

[9] = system: LXF-289
Method in brief: as §1

[10] = system: PC-3 [JPC-3]
Method in brief: as §1

[11] = system: HCC-78
Method in brief: as §1

[12] = system: NCI-H2126
Method in brief: as §1

[13] = system: NCI-H1915
Method in brief: as §1

[14] = system: NCI-H1755
Method in brief: as §1

[15] = system: SK-LU-1
Method in brief: as §1

[16] = system: LC-2-ad
Method in brief: as §1

[17] = system: RERF-LC-KJ
Method in brief: as §1

[18] = system: A-427
Method in brief: as §1

[19] = system: HOP-62
Method in brief: as §1

[20] = system: NCI-H1975
Method in brief: as §1

`CC(=O)O[C@@]12CO[C@@H]1C[C@H](O)[C@@]1(C)C(=O)[C@H](O)C3=C(C)[C@@H](OC(=O)[C@H](O)[C@@H](NC(=O)OC(C)(C)C)c4ccccc4)C[C@@](O)([C@@H](OC(=O)c4ccccc4)[C@H]21)C3(C)C` [Docetaxel] + CS(=O)(=O)CCNCc1ccc(-c2ccc3ncnc(Nc4ccc(OCc5cccc(F)c5)c(Cl)c4)c3c2)o1 [Lapatinib] (partner 2 µM) was tested, and the relative viability ([1]; first compound 0.0002 µM) was 0.741, the relative viability ([1]; first compound 0.000632 µM) was 0.85 and the relative viability ([1]; first compound 0.002 µM) was 0.522. It also gave a relative viability ([1]; first compound 0.02 µM) of 0.0831, a relative viability ([2]; first compound 0.0002 µM) of 1.01 and a relative viability ([2]; first compound 0.000632 µM) of 1.05. For the same compound, the relative viability ([2]; first compound 0.002 µM) was 0.839, the relative viability ([2]; first compound 0.006325 µM) was 0.512 and the relative viability ([2]; first compound 0.02 µM) was 0.479. It also gave a relative viability ([3]; first compound 0.0002 µM) of 0.681, a relative viability ([3]; first compound 0.000632 µM) of 0.372 and a relative viability ([3]; first compound 0.002 µM) of 0.208. The relative viability ([3]; first compound 0.006325 µM) was 0.195, the relative viability ([3]; first compound 0.02 µM) was 0.137 and the relative viability ([4]; first compound 0.0002 µM) was 0.426. For the same compound, the relative viability ([4]; first compound 0.000632 µM) was 0.357, the relative viability ([4]; first compound 0.002 µM) was 0.332 and the relative viability ([4]; first compound 0.02 µM) was 0.149. The relative viability ([5]; first compound 0.0002 µM) was 0.986, the relative viability ([5]; first compound 0.000632 µM) was 0.549 and the relative viability ([5]; first compound 0.002 µM) was 0.429. For the same compound, the relative viability ([5]; first compound 0.006325 µM) was 0.322, the relative viability ([5]; first compound 0.02 µM) was 0.221 and the relative viability ([6]; first compound 0.0002 µM) was 0.868. It also gave a relative viability ([6]; first compound 0.000632 µM) of 0.217, a relative viability ([6]; first compound 0.002 µM) of 0.119 and a relative viability ([6]; first compound 0.006325 µM) of 0.0918. For the same compound, the relative viability ([6]; first compound 0.02 µM) was 0.0858, the relative viability ([7]; first compound 0.0002 µM) was 1.06 and the relative viability ([7]; first compound 0.000632 µM) was 0.946. It also gave a relative viability ([7]; first compound 0.002 µM) of 0.321, a relative viability ([7]; first compound 0.006325 µM) of 0.256 and a relative viability ([7]; first compound 0.02 µM) of 0.192. For the same compound, the relative viability ([8]; first compound 0.0002 µM) was 0.641, the relative viability ([8]; first compound 0.000632 µM) was 0.184 and the relative viability ([8]; first compound 0.002 µM) was 0.255. For the same compound, the relative viability ([8]; first compound 0.006325 µM) was 0.267, the relative viability ([8]; first compound 0.02 µM) was 0.16 and the relative viability ([9]; first compound 0.0002 µM) was 0.926. For the same compound, the relative viability ([9]; first compound 0.000632 µM) was 0.847, the relative viability ([9]; first compound 0.002 µM) was 0.393 and the relative viability ([9]; first compound 0.006325 µM) was 0.137. For the same compound, the relative viability ([9]; first compound 0.02 µM) was 0.109, the relative viability ([10]; first compound 0.0002 µM) was 0.44 and the relative viability ([10]; first compound 0.000632 µM) was 0.476. The relative viability ([10]; first compound 0.002 µM) was 0.385, the relative viability ([10]; first compound 0.006325 µM) was 0.295 and the relative viability ([10]; first compound 0.02 µM) was 0.197. It also gave a relative viability ([11]; first compound 0.0002 µM) of 0.593, a relative viability ([11]; first compound 0.000632 µM) of 0.634 and a relative viability ([11]; first compound 0.002 µM) of 0.461. The relative viability ([11]; first compound 0.006325 µM) was 0.246, the relative viability ([11]; first compound 0.02 µM) was 0.204 and the relative viability ([12]; first compound 0.0002 µM) was 0.738. For the same compound, the relative viability ([12]; first compound 0.000632 µM) was 0.683, the relative viability ([12]; first compound 0.002 µM) was 0.562 and the relative viability ([12]; first compound 0.006325 µM) was 0.395. It also gave a relative viability ([12]; first compound 0.02 µM) of 0.253, a relative viability ([13]; first compound 0.0002 µM) of 0.937 and a relative viability ([13]; first compound 0.000632 µM) of 0.665. It also gave a relative viability ([13]; first compound 0.002 µM) of 0.351, a relative viability ([13]; first compound 0.006325 µM) of 0.146 and a relative viability ([13]; first compound 0.02 µM) of 0.118. It also gave a relative viability ([14]; first compound 0.0002 µM) of 0.99, a relative viability ([14]; first compound 0.000632 µM) of 0.756 and a relative viability ([14]; first compound 0.002 µM) of 0.495. It also gave a relative viability ([14]; first compound 0.006325 µM) of 0.448, a relative viability ([14]; first compound 0.02 µM) of 0.258 and a relative viability ([15]; first compound 0.0002 µM) of 0.581. The relative viability ([15]; first compound 0.000632 µM) was 0.436, the relative viability ([15]; first compound 0.002 µM) was 0.338 and the relative viability ([15]; first compound 0.006325 µM) was 0.222. It also gave a relative viability ([15]; first compound 0.02 µM) of 0.233, a relative viability ([16]; first compound 0.0002 µM) of 0.538 and a relative viability ([16]; first compound 0.000632 µM) of 0.296. The relative viability ([16]; first compound 0.002 µM) was 0.14, the relative viability ([16]; first compound 0.006325 µM) was 0.112 and the relative viability ([16]; first compound 0.02 µM) was 0.0888. For the same compound, the relative viability ([17]; first compound 0.0002 µM) was 0.808, the relative viability ([17]; first compound 0.000632 µM) was 0.841 and the relative viability ([17]; first compound 0.002 µM) was 0.498. For the same compound, the relative viability ([17]; first compound 0.006325 µM) was 0.177, the relative viability ([17]; first compound 0.02 µM) was 0.198 and the relative viability ([18]; first compound 0.0002 µM) was 0.947. For the same compound, the relative viability ([18]; first compound 0.000632 µM) was 1.02, the relative viability ([18]; first compound 0.002 µM) was 0.961 and the relative viability ([18]; first compound 0.006325 µM) was 0.211. For the same compound, the relative viability ([18]; first compound 0.02 µM) was 0.162, the relative viability ([19]; first compound 0.0002 µM) was 0.828 and the relative viability ([19]; first compound 0.000632 µM) was 0.448. It also gave a relative viability ([19]; first compound 0.02 µM) of 0.112, a relative viability ([20]; first compound 0.0002 µM) of 0.884 and a relative viability ([20]; first compound 0.000632 µM) of 0.449. The relative viability ([20]; first compound 0.002 µM) was 0.268, the relative viability ([20]; first compound 0.006325 µM) was 0.175 and the relative viability ([20]; first compound 0.02 µM) was 0.142.
